# According to patent US12257247B2 (Monte Rosa Therapeutics AG, priority 2023, dated 2025):
# Like-named read-outs stand apart in the source and are kept apart here.
# Target: T1, VAV1 (Homo sapiens, UniProt P15498+Q96SW2)
# T1 construct: A heterozygous VAV1 C-terminal HiBiT knock-in pool was generated at Monte Rosa Therapeutics from a clonal Jurkat cell; endogenous in cells; host or cells: Jurkat clone stably expressing LgBiT, homozygous GSPT1-G575N; heterozygous VAV1-HiBiT knock-in pool
# Assay: VAV1 degradation activity, VAV1-HiBiT knock-in Jurkat luminescence assay (Example A, Table 1)
# Assay type: cell-based
# Conditions: VAV1-HiBiT knock-in Jurkat cells; for Dmax: Jurkat
# In short: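 Luminescence was measured at 6 and 24 h after adding compound (10 μM stock) to VAV1-HiBiT knock-in Jurkat cells, which had been pre-incubated ~16 h at 37° C. in RPMI/10% FBS containing Endurazine. EC50 values came from control-normalised responses fitted to a 3-parameter logistic model with hillslope fixed at 1.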
# [1] = luminescence read at 6 and 24 hours, read-out: VAV1 Dmax %
# [2] = luminescence read at 6 and 24 hours, read-out: VAV1 Dmax %, class
# [3] = luminescence read at 6 and 24 hours, read-out: VAV1 DC50
# [4] = luminescence read at 6 and 24 hours, read-out: VAV1 DC50 (nM), class
# [5] = luminescence read at 6 and 24 hours after compound addition, read-out: VAV1 Dmax %
# [6] = luminescence read at 6 and 24 hours after compound addition, read-out: VAV1 Dmax %, class
# [7] = luminescence read at 6 and 24 hours after compound addition, read-out: VAV1 DC50
# [8] = luminescence read at 6 and 24 hours after compound addition, read-out: VAV1 DC50 (nM), class
SMILES,Dmax [1],Dmax [2],DC50 [3],DC50 [4],Dmax [5],Dmax [6],DC50 [7],DC50 [8]
"O=C1CCC(c2cccc(-c3ccc4[nH]ccc4c3)c2Cl)C(=O)N1 (stereo not shown) [Compound 482, 3-(2-chloro-3-(1H-indol-5-yl)phenyl)piperidine-2,6-dione]",91.7%,> 90%,18.7 nM,≤ 100 nM,,,,
"O=C1CCC(c2cccc(-c3ccc(N4Cc5ccccc5C4=O)cc3)c2Cl)C(=O)N1 (stereo not shown) [Compound 456, 3-(2-chloro-4′-(1-oxoisoindolin-2-yl)-[1,1′-biphenyl]-3-yl)piperidine-2,6-dione]",61%,60 to 90%,1560 nM,> 1000 nM,,,,
CC1CCC(=O)N(Cc2ccc(-c3cccc(C4CCC(=O)NC4=O)c3Cl)cc2)C1 (stereo not shown) [Compound 288],96.7%,> 90%,6.09 nM,≤ 100 nM,,,,
O=C1CCC(c2cccc(-c3ccc(N4CCn5ccnc5C4=O)cc3)c2Cl)C(=O)N1 (stereo not shown) [Compound 309],89.6%,60 to 90%,39.4 nM,≤ 100 nM,,,,
"O=C1CCC(c2cccc(-c3ccc(Cn4ccccc4=O)cc3)c2)C(=O)N1 (stereo not shown) [Compound 239, 3-(4′-((2-oxopyridin-1(2H)-yl)methyl)-[1,1′-biphenyl]-3-yl)piperidine-2,6-dione]",63.4%,60 to 90%,341 nM,100 to 1000 nM,,,,
"O=C1CCC(c2cccc(-c3ccc(CN4C(=O)CCCC45CC5)nc3)c2Cl)C(=O)N1 (stereo not shown) [Compound 404, 3-(2-chloro-3-(6-((5-oxo-4-azaspiro[2.5]octan-4-yl)methyl)pyridin-3-yl)phenyl)piperidine-2,6-dione]",65.5%,60 to 90%,262 nM,100 to 1000 nM,,,,
"Cc1ccc(=O)n(Cc2ccc(-c3cccc(C4CCC(=O)NC4=O)c3Cl)cc2)c1 (stereo not shown) [Compound 188, 3-(2-chloro-4′-((5-methyl-2-oxopyridin-1(2H)-yl)methyl)-[1,1′-biphenyl]-3-yl)piperidine-2,6-dione]",95%,> 90%,7.16 nM,≤ 100 nM,,,,
O=C1CCC(c2cccc(-c3ccc(CN4C(=O)CC45CCOCC5)cc3)c2Cl)C(=O)N1 (stereo not shown) [Compound 278],95.9%,> 90%,5.33 nM,≤ 100 nM,,,,
"Cc1cccn(Cc2ccc(-c3cccc(C4CCC(=O)NC4=O)c3Cl)cc2)c1=O (stereo not shown) [Compound 187, 3-(2-chloro-4′-((3-methyl-2-oxopyridin-1(2H)-yl)methyl)-[1,1′-biphenyl]-3-yl)piperidine-2,6-dione]",94.2%,> 90%,9.75 nM,≤ 100 nM,,,,
O=C1CCC(c2cccc(-c3ccc(N4CCCC(F)C4=O)cc3)c2Cl)C(=O)N1 (stereo not shown) [Compound 323],95%,> 90%,10.6 nM,≤ 100 nM,,,,
"O=C1CCC(c2cccc(-c3ccc(NC(=O)C4CCOC4)cc3)c2Cl)C(=O)N1 (stereo not shown) [Compound 227, N-[4-[2-chloro-3-(2,6-dioxo-3-piperidyl)phenyl]phenyl]tetrahydrofuran-3-carboxamide]",77.4%,60 to 90%,81.8 nM,≤ 100 nM,,,,
"O=C1CCC(c2cccc(-c3ccc(-n4ccc(F)cc4=O)cc3)c2Cl)C(=O)N1 (stereo not shown) [Compound 245, 3-[2-chloro-3-[4-(4-fluoro-2-oxo-1-pyridyl)phenyl]phenyl]piperidine-2,6-dione]",95.2%,> 90%,17.5 nM,≤ 100 nM,,,,
Cn1ncc2c1CCN(c1ccc(-c3cccc(C4CCC(=O)NC4=O)c3Cl)cc1)C2=O (stereo not shown) [Compound 313],95.3%,> 90%,7.02 nM,≤ 100 nM,,,,
O=C1CCC(c2cccc(-c3ccc(CN4CC5CCCN5CC4=O)cc3)c2Cl)C(=O)N1 (stereo not shown) [Compound 260],83.9%,60 to 90%,193 nM,100 to 1000 nM,,,,
COc1cc(-c2cccc(C3CCC(=O)NC3=O)c2Cl)ccc1C (stereo not shown) [Compound 132],84.5%,60 to 90%,475 nM,100 to 1000 nM,,,,
CC1CCCN(c2ccc(-c3cccc(C4CCC(=O)NC4=O)c3Cl)cc2)C1=O (stereo not shown) [Compound 329],95.8%,> 90%,6.62 nM,≤ 100 nM,,,,
"O=C1CCC(c2cccc(-c3ccc(C4(n5ccccc5=O)CC4)cc3)c2Cl)C(=O)N1 (stereo not shown) [Compound 241, 3-[2-chloro-3-[4-[1-(2-oxo-1-pyridyl)cyclopropyl]phenyl]phenyl]piperidine-2,6-dione]",77%,60 to 90%,920 nM,100 to 1000 nM,,,,

SMILES,Dmax [1],Dmax [2],DC50 [3],DC50 [4],Dmax [5],Dmax [6],DC50 [7],DC50 [8]
"Nc1ccc(-c2cccc(C3CCC(=O)NC3=O)c2Cl)cc1 (stereo not shown) [Compound 130, 3-(4′-amino-2-chloro-[1,1′-biphenyl]-3-yl)piperidine-2,6-dione]",84.6%,60 to 90%,37.1 nM,≤ 100 nM,,,,
"CN1CCC[C@H](c2ccc(-c3cccc(C4CCC(=O)NC4=O)c3Cl)cc2)C1=O (stereo partly drawn) [Compound 409, 3-(2-chloro-4′-((R)-1-methyl-2-oxopiperidin-3-yl)-[1,1′-biphenyl]-3-yl)piperidine-2,6-dione]",95.2%,> 90%,7.82 nM,≤ 100 nM,,,,
"Cn1ccc(Cn2ccc3cc(-c4cccc(C5CCC(=O)NC5=O)c4Cl)ccc32)n1 (stereo not shown) [Compound 499, 3-(2-chloro-3-(1-((1-methyl-1H-pyrazol-3-yl)methyl)-1H-indol-5-yl)phenyl)piperidine-2,6-dione]",,,,,97.9%,> 90%,5.45 nM,≤ 100 nM
CC1CCCC(=O)N1Cc1ccc(-c2cccc(C3CCC(=O)NC3=O)c2Cl)cc1 (stereo not shown) [Compound 295],94.8%,> 90%,9.84 nM,≤ 100 nM,,,,
O=C1CCC(c2cccc(-c3ccc(N4CCCC(F)(F)C4=O)cc3)c2Cl)C(=O)N1 (stereo not shown) [Compound 322],93.9%,> 90%,17.7 nM,≤ 100 nM,,,,
"O=C1CC[C@](F)(c2cccc(-c3ccc(N4CCCCC4=O)cc3)c2Cl)C(=O)N1 (single isomer, unassigned) [Compound 367]",90.6%,> 90%,706 nM,100 to 1000 nM,,,,
O=C1CCC(c2cccc(-c3ccc(CN4C(=O)CCCC4C(F)(F)F)cc3)c2Cl)C(=O)N1 (stereo not shown) [Compound 262],90.2%,> 90%,32.6 nM,≤ 100 nM,,,,
"Cn1cccc(N2CCc3cc(-c4cccc(C5CCC(=O)NC5=O)c4Cl)ccc32)c1=O (stereo not shown) [Compound 509, 3-(2-chloro-3-(1-(1-methyl-2-oxo-1,2-dihydropyridin-3-yl)indolin-5-yl)phenyl)piperidine-2,6-dione]",,,,,97.8%,> 90%,3.85 nM,≤ 100 nM
COc1ccc(-c2cccc(C3CCC(=O)NC3=O)c2Cl)cc1OC(F)F (stereo not shown) [Compound 108],47.8%,< 60%,≥ 10000 nM,> 1000 nM,,,,
"C[C@@H]1COC(=O)N1c1ccc(-c2cccc(C3CCC(=O)NC3=O)c2Cl)cc1 (stereo partly drawn) [Compound 217, 3-(2-chloro-4′-((R)-4-methyl-2-oxooxazolidin-3-yl)-[1,1′-biphenyl]-3-yl)piperidine-2,6-dione]",84.6%,60 to 90%,43 nM,≤ 100 nM,,,,
C[C@@H]1CCC(=O)N1c1ccc(-c2cccc(C3CCC(=O)NC3=O)c2Cl)cc1 (stereo partly shown) [Compound 303],93.5%,> 90%,13.9 nM,≤ 100 nM,,,,
"O=C1CCC(c2cccc(-c3ccc(NC(=O)c4ccon4)cc3)c2Cl)C(=O)N1 (stereo not shown) [Compound 229, N-(2′-chloro-3′-(2,6-dioxopiperidin-3-yl)-[1,1′-biphenyl]-4-yl)isoxazole-3-carboxamide]",82.7%,60 to 90%,79.3 nM,≤ 100 nM,,,,
"O=C1CCC(c2cccc(-c3ccc(N4CCCCC4)cc3)c2Cl)C(=O)N1 (stereo not shown) [Compound 459, 3-(2-chloro-4′-(piperidin-1-yl)-[1,1′-biphenyl]-3-yl)piperidine-2,6-dione]",84.4%,60 to 90%,122 nM,100 to 1000 nM,,,,
CN1CC(=O)N(Cc2ccc(-c3cccc(C4CCC(=O)NC4=O)c3Cl)cc2)c2cnccc21 (stereo not shown) [Compound 256],75.8%,60 to 90%,213 nM,100 to 1000 nM,,,,
CN1CCN(Cc2ccc(-c3cccc(C4CCC(=O)NC4=O)c3Cl)cc2)C(=O)C1 (stereo not shown) [Compound 277],76.8%,60 to 90%,647 nM,100 to 1000 nM,,,,
"O=C1CCC(c2cccc(-c3ccc(Cn4ccnc4)cc3)c2Cl)C(=O)N1 (stereo not shown) [Compound 140, 3-(4′-((1H-imidazol-1-yl)methyl)-2-chloro-[1,1′-biphenyl]-3-yl)piperidine-2,6-dione]",83.8%,60 to 90%,52.2 nM,≤ 100 nM,,,,
"Cn1ccc(=O)n1Cc1ccc(-c2cccc(C3CCC(=O)NC3=O)c2Cl)cc1 (stereo not shown) [Compound 158, 3-(2-chloro-4′-((2-methyl-5-oxo-2,5-dihydro-1H-pyrazol-1-yl)methyl)-[1,1′-biphenyl]-3-yl)piperidine-2,6-dione]",81.7%,60 to 90%,74.3 nM,≤ 100 nM,,,,
